# Data as given in US20090099029A1, “Methods and substrates for conducting assays” (Invitrogen Corporation, priority 2005, published 2009).
# Biological target: T1, kinases of Table 5 (Homo sapiens, UniProt O43318)
# T1 sequence (O43318 1-606): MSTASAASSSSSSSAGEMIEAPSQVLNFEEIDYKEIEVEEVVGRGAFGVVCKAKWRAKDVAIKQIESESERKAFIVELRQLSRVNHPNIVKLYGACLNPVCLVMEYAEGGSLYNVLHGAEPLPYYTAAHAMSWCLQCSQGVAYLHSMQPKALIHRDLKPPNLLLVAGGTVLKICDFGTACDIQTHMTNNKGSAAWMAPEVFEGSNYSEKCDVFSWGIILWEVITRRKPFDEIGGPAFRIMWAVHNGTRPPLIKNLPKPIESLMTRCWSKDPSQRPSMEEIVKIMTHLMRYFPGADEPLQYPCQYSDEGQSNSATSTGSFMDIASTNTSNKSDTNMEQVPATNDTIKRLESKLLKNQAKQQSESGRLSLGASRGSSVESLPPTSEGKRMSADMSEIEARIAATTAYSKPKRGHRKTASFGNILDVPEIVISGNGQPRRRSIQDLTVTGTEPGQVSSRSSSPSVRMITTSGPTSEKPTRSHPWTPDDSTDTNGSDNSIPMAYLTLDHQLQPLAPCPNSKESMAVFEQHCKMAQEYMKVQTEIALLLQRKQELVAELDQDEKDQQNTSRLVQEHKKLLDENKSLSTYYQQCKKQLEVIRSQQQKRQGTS
# Test: Further analysis of a plurality of inhibitors and a plurality of kinases (Table 5 inhibition results)
# Type: biochemical
# Set-up: scale not given here
# Settings: kinase MAP3K7 (Part I, plate G9, Domain 0); inhibitor 100 uM
# Text: (§1) The wash solution is then discarded.
row,Inhibition Results (Level),Structure (SMILES)
1,2,CC(C)(C)n1nc(-c2ccc(Cl)cc2)c2c(N)ncnc21 [PP2]
2,2,O=S(=O)(NCCNC/C=C/c1ccc(Br)cc1)c1cccc2cnccc12 [H-89]

row,Structure (SMILES),Inhibition Results (Level)
1,CC(=O)c1c(O)c(C)c(O)c(Cc2c(O)c3c(c(C(=O)/C=C/c4ccccc4)c2O)OC(C)(C)C=C3)c1O [Rottlerin (Mallotoxin)],2

# Biological target: kinases of Table 5 (Homo sapiens, UniProt P06241)
# Sequence (P06241 whole entry): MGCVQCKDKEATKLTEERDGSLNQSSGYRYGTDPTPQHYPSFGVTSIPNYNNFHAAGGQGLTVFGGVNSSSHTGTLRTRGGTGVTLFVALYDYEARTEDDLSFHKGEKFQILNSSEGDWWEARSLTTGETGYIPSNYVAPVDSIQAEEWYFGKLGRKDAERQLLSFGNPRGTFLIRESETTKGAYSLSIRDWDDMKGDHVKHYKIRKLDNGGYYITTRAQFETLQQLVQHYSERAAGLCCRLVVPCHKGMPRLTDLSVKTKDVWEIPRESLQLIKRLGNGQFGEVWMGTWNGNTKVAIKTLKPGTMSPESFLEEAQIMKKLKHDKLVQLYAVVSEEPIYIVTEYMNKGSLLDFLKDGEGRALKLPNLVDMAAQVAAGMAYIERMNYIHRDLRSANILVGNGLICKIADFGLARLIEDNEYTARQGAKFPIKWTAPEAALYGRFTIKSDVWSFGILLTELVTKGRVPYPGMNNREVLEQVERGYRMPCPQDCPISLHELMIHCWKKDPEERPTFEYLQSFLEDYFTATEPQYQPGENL
# Test: as above
# Type: biochemical
# Set-up: scale not given here
# Settings: not given
# Text: as §1
row,Structure (SMILES),Inhibition Results (Level)
1,CN[C@@H]1C[C@H]2O[C@@](C)([C@@H]1OC)n1c3ccccc3c3c4c(c5c6ccccc6n2c5c31)C(=O)NC4 [Staurosporine],2

# Same assay, conditions: kinase FYN (Part I, plate A4, Domain 0); inhibitor 100 uM
row,Structure (SMILES),Inhibition Results (Level)
1,CC(=O)c1c(O)c(C)c(O)c(Cc2c(O)c3c(c(C(=O)/C=C/c4ccccc4)c2O)OC(C)(C)C=C3)c1O [Rottlerin (Mallotoxin)],2
2,O=S(=O)(NCCNC/C=C/c1ccc(Br)cc1)c1cccc2cnccc12 [H-89],2

# Biological target: kinases of Table 5 (Homo sapiens, UniProt P11362)
# Sequence (P11362 22-822): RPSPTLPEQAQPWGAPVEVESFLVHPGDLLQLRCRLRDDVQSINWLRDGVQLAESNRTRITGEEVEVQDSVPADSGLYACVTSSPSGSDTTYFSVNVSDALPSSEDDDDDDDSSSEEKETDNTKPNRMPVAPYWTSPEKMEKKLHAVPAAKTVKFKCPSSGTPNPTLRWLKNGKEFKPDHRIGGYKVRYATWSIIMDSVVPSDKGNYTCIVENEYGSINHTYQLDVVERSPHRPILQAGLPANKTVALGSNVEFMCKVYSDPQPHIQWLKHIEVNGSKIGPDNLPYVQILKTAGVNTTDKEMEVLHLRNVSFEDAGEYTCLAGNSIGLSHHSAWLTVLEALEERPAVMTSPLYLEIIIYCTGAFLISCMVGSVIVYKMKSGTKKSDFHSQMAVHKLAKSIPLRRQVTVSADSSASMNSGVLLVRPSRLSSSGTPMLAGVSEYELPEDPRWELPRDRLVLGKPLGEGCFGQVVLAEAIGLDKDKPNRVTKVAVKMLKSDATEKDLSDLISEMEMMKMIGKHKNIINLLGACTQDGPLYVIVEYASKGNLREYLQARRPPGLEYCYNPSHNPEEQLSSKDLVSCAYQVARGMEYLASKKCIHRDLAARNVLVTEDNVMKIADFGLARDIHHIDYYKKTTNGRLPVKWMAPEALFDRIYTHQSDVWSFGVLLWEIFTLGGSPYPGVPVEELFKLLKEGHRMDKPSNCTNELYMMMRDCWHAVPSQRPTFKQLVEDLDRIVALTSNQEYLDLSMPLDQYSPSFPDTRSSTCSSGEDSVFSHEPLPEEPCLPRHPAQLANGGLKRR
# Test: as above
# Type: biochemical
# Set-up: scale not given here
# Settings: kinase FGFR1 (Part II, plate D12, Domain 1); inhibitor 100 uM
# Text: as §1
row,Structure (SMILES),Inhibition Results (Level)
1,CC(=O)c1c(O)c(C)c(O)c(Cc2c(O)c3c(c(C(=O)/C=C/c4ccccc4)c2O)OC(C)(C)C=C3)c1O [Rottlerin (Mallotoxin)],1
2,O=S(=O)(NCCNC/C=C/c1ccc(Br)cc1)c1cccc2cnccc12 [H-89],1

# Same assay, conditions: kinase FGFR1; inhibitor 100 uM
row,Inhibition level,Structure (SMILES)
1,2,CC(C)(C)n1nc(-c2ccc(Cl)cc2)c2c(N)ncnc21 [PP2]

# Biological target: kinases of Table 5 (Homo sapiens, UniProt P24723)
# Test: as above
# Type: biochemical
# Set-up: scale not given here
# Settings: kinase PRKCH (Part II, plate B3, Domain 0); inhibitor 100 uM
# Text: as §1
row,Structure (SMILES),Inhibition Results (Level)
1,O=c1c(O)c(-c2ccc(O)c(O)c2)oc2cc(O)cc(O)c12 [Quercetin],0
2,CC(=O)c1c(O)c(C)c(O)c(Cc2c(O)c3c(c(C(=O)/C=C/c4ccccc4)c2O)OC(C)(C)C=C3)c1O [Rottlerin (Mallotoxin)],2
3,O=S(=O)(NCCNC/C=C/c1ccc(Br)cc1)c1cccc2cnccc12 [H-89],2

# Same assay, conditions: kinase PRKCH; inhibitor 100 uM
row,Inhibition level,Structure (SMILES)
1,2,CC(C)(C)n1nc(-c2ccc(Cl)cc2)c2c(N)ncnc21 [PP2]

# Biological target: kinases of Table 5 (Homo sapiens, UniProt P68400)
# Sequence (P68400 whole entry): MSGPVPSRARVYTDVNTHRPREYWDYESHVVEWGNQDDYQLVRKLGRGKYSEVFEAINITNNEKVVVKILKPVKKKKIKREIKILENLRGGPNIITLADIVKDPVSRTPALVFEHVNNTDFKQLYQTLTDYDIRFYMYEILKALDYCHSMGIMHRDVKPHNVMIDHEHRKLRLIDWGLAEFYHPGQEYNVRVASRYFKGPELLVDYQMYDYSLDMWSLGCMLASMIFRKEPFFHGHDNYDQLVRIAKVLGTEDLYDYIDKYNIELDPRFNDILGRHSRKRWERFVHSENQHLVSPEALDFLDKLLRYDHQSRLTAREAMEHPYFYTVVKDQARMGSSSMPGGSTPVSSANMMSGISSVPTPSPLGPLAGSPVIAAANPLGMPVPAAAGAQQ
# Test: as above
# Type: biochemical
# Set-up: scale not given here
# Settings: not given
# Text: as §1
row,Structure (SMILES),Inhibition level
1,CN[C@@H]1C[C@H]2O[C@@](C)([C@@H]1OC)n1c3ccccc3c3c4c(c5c6ccccc6n2c5c31)C(=O)NC4 [Staurosporine],2

# Same assay, conditions: kinase CSNK2A1 (Part II, plate D9, Domain 0); inhibitor 100 uM
row,Structure (SMILES),Inhibition Results (Level)
1,CC(=O)c1c(O)c(C)c(O)c(Cc2c(O)c3c(c(C(=O)/C=C/c4ccccc4)c2O)OC(C)(C)C=C3)c1O [Rottlerin (Mallotoxin)],2
2,O=S(=O)(NCCNC/C=C/c1ccc(Br)cc1)c1cccc2cnccc12 [H-89],0

# Same assay, conditions: kinase CSNK2A1; inhibitor 100 uM
row,Inhibition level,Structure (SMILES)
1,2,CC(C)(C)n1nc(-c2ccc(Cl)cc2)c2c(N)ncnc21 [PP2]

# Biological target: T2, kinases of Table 5 (Homo sapiens, UniProt Q13043)
# T2 sequence (Q13043 1-487): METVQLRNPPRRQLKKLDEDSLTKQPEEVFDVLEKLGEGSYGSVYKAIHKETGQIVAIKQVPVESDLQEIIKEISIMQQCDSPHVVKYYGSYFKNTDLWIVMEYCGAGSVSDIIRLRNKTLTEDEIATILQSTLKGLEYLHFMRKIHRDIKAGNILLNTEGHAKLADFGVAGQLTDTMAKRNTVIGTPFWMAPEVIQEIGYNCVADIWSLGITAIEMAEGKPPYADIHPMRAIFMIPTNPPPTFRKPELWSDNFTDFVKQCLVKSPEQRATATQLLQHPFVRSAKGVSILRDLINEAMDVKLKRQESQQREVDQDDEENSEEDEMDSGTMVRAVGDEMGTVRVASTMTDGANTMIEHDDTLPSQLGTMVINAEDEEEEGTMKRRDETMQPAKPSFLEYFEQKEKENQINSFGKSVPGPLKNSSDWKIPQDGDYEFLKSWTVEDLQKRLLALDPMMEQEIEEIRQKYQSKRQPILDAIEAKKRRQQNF
# Test: as above
# Type: biochemical
# Set-up: scale not given here
# Settings: kinase STK4 (Part II, plate D6, Domain 1); inhibitor 100 uM
# Text: as §1
row,Structure (SMILES),Inhibition Results (Level)
1,O=c1c(O)c(-c2ccc(O)c(O)c2)oc2cc(O)cc(O)c12 [Quercetin],0
2,CC(=O)c1c(O)c(C)c(O)c(Cc2c(O)c3c(c(C(=O)/C=C/c4ccccc4)c2O)OC(C)(C)C=C3)c1O [Rottlerin (Mallotoxin)],0
3,O=S(=O)(NCCNC/C=C/c1ccc(Br)cc1)c1cccc2cnccc12 [H-89],2

# Same assay, conditions: kinase STK4; concentration not given
row,Structure (SMILES),Inhibition level
1,CN[C@@H]1C[C@H]2O[C@@](C)([C@@H]1OC)n1c3ccccc3c3c4c(c5c6ccccc6n2c5c31)C(=O)NC4 [Staurosporine],0

# Same assay, conditions: kinase STK4; inhibitor 100 uM
row,Inhibition level,Structure (SMILES)
1,2,CC(C)(C)n1nc(-c2ccc(Cl)cc2)c2c(N)ncnc21 [PP2]

# Biological target: kinases of Table 5 (Homo sapiens, UniProt Q13557)
# Sequence (Q13557 whole entry): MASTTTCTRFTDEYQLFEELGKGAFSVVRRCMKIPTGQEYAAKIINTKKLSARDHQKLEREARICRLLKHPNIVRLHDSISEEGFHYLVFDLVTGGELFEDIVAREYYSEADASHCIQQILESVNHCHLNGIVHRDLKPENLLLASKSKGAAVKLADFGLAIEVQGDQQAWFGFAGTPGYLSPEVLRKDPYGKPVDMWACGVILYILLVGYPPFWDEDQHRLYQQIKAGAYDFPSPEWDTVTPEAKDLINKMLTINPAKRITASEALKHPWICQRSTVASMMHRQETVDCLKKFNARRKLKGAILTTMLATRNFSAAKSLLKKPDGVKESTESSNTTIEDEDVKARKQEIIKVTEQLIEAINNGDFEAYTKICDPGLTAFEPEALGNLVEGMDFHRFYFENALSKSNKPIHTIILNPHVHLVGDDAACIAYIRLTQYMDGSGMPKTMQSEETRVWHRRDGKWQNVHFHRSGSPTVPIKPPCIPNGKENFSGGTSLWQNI
# Test: as above
# Type: biochemical
# Set-up: scale not given here
# Settings: not given
# Text: as §1
row,Structure (SMILES),Inhibition level
1,CN[C@@H]1C[C@H]2O[C@@](C)([C@@H]1OC)n1c3ccccc3c3c4c(c5c6ccccc6n2c5c31)C(=O)NC4 [Staurosporine],2

# Same assay, conditions: kinase CAMK2D; inhibitor 100 uM
row,Inhibition level,Structure (SMILES)
1,2,CC(C)(C)n1nc(-c2ccc(Cl)cc2)c2c(N)ncnc21 [PP2]
2,0,O=S(=O)(NCCNC/C=C/c1ccc(Br)cc1)c1cccc2cnccc12 [H-89]

row,Structure (SMILES),Inhibition level
1,CC(=O)c1c(O)c(C)c(O)c(Cc2c(O)c3c(c(C(=O)/C=C/c4ccccc4)c2O)OC(C)(C)C=C3)c1O [Rottlerin (Mallotoxin)],2

# Biological target: kinases of Table 5 (Homo sapiens, UniProt Q8IVW4)
# Sequence (Q8IVW4 whole entry): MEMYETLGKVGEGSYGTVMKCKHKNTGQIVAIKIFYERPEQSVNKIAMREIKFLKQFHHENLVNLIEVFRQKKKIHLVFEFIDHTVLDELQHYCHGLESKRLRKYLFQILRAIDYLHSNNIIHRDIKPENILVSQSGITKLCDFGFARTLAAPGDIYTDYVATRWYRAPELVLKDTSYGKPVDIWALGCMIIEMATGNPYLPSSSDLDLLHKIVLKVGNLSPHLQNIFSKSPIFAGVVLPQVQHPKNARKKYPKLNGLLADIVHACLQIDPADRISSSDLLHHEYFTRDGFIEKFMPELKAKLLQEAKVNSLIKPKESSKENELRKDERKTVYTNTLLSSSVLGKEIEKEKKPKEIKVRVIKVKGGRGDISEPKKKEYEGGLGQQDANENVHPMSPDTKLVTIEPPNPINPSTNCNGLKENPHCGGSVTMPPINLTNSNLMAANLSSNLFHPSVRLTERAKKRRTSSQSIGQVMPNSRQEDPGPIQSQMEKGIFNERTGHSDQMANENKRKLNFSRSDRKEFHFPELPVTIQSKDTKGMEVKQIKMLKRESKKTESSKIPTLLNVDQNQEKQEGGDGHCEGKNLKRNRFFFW
# Test: as above
# Type: biochemical
# Set-up: scale not given here
# Settings: kinase CDKL3 (Part II, plate F12, Domain 0); inhibitor 100 uM
# Text: as §1
row,Structure (SMILES),Inhibition Results (Level)
1,O=c1c(O)c(-c2ccc(O)c(O)c2)oc2cc(O)cc(O)c12 [Quercetin],0
2,CC(=O)c1c(O)c(C)c(O)c(Cc2c(O)c3c(c(C(=O)/C=C/c4ccccc4)c2O)OC(C)(C)C=C3)c1O [Rottlerin (Mallotoxin)],1
3,O=S(=O)(NCCNC/C=C/c1ccc(Br)cc1)c1cccc2cnccc12 [H-89],1

# Same assay, conditions: kinase CDKL3; inhibitor 100 uM
row,Inhibition level,Structure (SMILES)
1,2,CC(C)(C)n1nc(-c2ccc(Cl)cc2)c2c(N)ncnc21 [PP2]

# Biological target: kinases of Table 5 (Homo sapiens, UniProt Q9UIK4)
# Sequence (Q9UIK4 whole entry): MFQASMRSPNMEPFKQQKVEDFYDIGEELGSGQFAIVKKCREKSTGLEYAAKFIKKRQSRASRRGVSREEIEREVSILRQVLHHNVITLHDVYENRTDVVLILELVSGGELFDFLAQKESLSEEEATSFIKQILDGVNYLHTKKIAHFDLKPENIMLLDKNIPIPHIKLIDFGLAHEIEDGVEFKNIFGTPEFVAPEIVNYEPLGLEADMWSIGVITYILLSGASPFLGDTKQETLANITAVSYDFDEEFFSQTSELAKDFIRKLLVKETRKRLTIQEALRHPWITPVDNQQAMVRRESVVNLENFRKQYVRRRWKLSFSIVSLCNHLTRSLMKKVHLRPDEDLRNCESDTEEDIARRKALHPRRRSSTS
# Test: as above
# Type: biochemical
# Set-up: scale not given here
# Settings: kinase DAPK2 (Part II, plate H3, Domain 1); inhibitor 100 uM
# Text: as §1
row,Structure (SMILES),Inhibition Results (Level)
1,O=c1c(O)c(-c2ccc(O)c(O)c2)oc2cc(O)cc(O)c12 [Quercetin],0
2,CC(=O)c1c(O)c(C)c(O)c(Cc2c(O)c3c(c(C(=O)/C=C/c4ccccc4)c2O)OC(C)(C)C=C3)c1O [Rottlerin (Mallotoxin)],1
3,O=S(=O)(NCCNC/C=C/c1ccc(Br)cc1)c1cccc2cnccc12 [H-89],2

# Same assay, conditions: kinase DAPK2; concentration not given
row,Structure (SMILES),Inhibition level
1,CN[C@@H]1C[C@H]2O[C@@](C)([C@@H]1OC)n1c3ccccc3c3c4c(c5c6ccccc6n2c5c31)C(=O)NC4 [Staurosporine],2

# Same assay, conditions: kinase DAPK2; inhibitor 100 uM
row,Inhibition level,Structure (SMILES)
1,2,CC(C)(C)n1nc(-c2ccc(Cl)cc2)c2c(N)ncnc21 [PP2]

# Biological target: T3, kinases of Table 5 (Homo sapiens, UniProt Q9Y616)
# T3 sequence (Q9Y616 1-596): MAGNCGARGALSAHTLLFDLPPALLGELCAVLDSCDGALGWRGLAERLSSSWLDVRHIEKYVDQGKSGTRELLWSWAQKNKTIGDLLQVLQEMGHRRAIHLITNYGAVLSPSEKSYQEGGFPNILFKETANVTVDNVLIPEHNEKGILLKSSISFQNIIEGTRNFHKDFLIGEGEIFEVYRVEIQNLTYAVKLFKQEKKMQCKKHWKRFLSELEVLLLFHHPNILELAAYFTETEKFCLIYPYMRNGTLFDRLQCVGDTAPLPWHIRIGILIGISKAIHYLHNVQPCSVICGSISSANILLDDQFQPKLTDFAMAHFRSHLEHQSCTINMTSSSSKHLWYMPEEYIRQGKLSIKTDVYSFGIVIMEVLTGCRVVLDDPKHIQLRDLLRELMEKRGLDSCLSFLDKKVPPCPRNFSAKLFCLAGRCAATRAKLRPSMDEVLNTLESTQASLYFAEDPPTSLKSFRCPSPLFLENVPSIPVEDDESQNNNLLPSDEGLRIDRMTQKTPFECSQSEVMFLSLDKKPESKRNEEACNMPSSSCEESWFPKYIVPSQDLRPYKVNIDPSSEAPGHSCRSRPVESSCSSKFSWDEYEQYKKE
# Test: as above
# Type: biochemical
# Set-up: scale not given here
# Settings: kinase IRAK3 (Part I, plate C9, Domain 1); inhibitor 100 uM
# Text: as §1
row,Structure (SMILES),Inhibition Results (Level)
1,O=c1c(O)c(-c2ccc(O)c(O)c2)oc2cc(O)cc(O)c12 [Quercetin],0
2,CC(=O)c1c(O)c(C)c(O)c(Cc2c(O)c3c(c(C(=O)/C=C/c4ccccc4)c2O)OC(C)(C)C=C3)c1O [Rottlerin (Mallotoxin)],2
3,CC(C)(C)n1nc(-c2ccc(Cl)cc2)c2c(N)ncnc21 [PP2],2
4,O=S(=O)(NCCNC/C=C/c1ccc(Br)cc1)c1cccc2cnccc12 [H-89],0

# Biological target: kinases of Table 5 (Homo sapiens, UniProt Q9Y6R4)
# Sequence (Q9Y6R4 whole entry): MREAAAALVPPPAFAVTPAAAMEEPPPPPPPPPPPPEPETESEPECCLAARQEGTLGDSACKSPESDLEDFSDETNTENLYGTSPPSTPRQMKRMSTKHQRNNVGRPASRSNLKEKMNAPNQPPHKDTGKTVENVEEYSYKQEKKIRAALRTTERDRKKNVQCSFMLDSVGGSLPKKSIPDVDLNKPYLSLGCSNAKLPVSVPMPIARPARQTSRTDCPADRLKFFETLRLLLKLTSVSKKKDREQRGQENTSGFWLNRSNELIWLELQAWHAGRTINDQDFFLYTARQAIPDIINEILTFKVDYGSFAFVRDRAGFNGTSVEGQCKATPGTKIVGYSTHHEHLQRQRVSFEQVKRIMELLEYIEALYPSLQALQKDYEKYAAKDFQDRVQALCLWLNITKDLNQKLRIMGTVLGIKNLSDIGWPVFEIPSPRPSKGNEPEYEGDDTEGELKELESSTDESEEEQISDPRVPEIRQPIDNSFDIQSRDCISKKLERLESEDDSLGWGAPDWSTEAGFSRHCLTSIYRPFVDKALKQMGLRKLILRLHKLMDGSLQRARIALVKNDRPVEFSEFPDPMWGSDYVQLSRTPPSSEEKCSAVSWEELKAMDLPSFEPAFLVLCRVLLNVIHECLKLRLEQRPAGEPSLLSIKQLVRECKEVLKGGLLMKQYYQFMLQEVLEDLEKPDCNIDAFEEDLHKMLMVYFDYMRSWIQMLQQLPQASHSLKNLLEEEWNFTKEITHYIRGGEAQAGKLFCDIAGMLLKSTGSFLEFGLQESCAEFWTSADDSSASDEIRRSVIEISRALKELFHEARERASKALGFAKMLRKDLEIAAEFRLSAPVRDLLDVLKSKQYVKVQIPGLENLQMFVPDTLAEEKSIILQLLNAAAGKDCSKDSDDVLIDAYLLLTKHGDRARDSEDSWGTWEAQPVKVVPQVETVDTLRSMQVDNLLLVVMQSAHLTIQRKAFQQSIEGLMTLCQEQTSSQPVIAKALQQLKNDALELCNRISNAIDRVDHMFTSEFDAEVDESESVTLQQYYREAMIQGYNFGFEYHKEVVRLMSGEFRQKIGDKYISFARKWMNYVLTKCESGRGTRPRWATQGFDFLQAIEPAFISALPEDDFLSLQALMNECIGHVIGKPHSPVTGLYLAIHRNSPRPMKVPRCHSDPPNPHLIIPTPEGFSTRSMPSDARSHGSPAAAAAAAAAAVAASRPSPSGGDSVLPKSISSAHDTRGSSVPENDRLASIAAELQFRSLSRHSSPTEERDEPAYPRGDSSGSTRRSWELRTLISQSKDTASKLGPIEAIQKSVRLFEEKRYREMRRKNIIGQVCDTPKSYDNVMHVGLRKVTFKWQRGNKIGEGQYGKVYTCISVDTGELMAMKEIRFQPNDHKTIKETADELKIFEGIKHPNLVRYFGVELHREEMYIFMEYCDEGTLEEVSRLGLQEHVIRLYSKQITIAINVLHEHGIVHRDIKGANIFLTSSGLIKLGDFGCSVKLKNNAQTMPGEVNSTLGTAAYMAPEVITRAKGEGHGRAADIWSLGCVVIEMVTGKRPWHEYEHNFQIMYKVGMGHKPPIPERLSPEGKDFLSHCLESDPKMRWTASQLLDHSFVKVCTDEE
# Test: as above
# Type: biochemical
# Set-up: scale not given here
# Settings: kinase MAP3K4 (Part I, plate E7, Domain 1); inhibitor 100 uM
# Text: as §1
row,Structure (SMILES),Inhibition Results (Level)
1,O=c1c(O)c(-c2ccc(O)c(O)c2)oc2cc(O)cc(O)c12 [Quercetin],0
2,CC(=O)c1c(O)c(C)c(O)c(Cc2c(O)c3c(c(C(=O)/C=C/c4ccccc4)c2O)OC(C)(C)C=C3)c1O [Rottlerin (Mallotoxin)],1
3,CC(C)(C)n1nc(-c2ccc(Cl)cc2)c2c(N)ncnc21 [PP2],2
4,O=S(=O)(NCCNC/C=C/c1ccc(Br)cc1)c1cccc2cnccc12 [H-89],1
